Assay results from PubChem BioAssay (NCI).
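Step 1: Grow cells in 96-well plates. Step 2: Expose to compound for 48 hours at 5 concentrations. Step 3: Interpolate endpoints linearly; if unreached, use highest concentration. Abbreviation: GI50, concentration required for 50% inhibition of growth. TGI is the concentration that stops growth completely.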

Tests used:
Assay in all cases: NCI anticancer screen, dose series, 48 h
ACHN renal = tested on: ACHN renal
HCC-2998 colon = tested on: HCC-2998 colon
HL-60(TB) leukemia = tested on: HL-60(TB) leukemia
MALME-3M melanoma = tested on: MALME-3M melanoma
MDA-MB-231 breast = tested on: MDA-MB-231 breast
NCI-H460 lung = tested on: NCI-H460 lung
SK-MEL-28 melanoma = tested on: SK-MEL-28 melanoma
SNB-19 CNS = tested on: SNB-19 CNS
SNB-75 CNS = tested on: SNB-75 CNS
PC-3 prostate = tested on: PC-3 prostate

| SMILES | GI50 (ACHN renal) | TGI (ACHN renal) | GI50 (HCC-2998 colon) | TGI (HCC-2998 colon) | GI50 (HL-60(TB) leukemia) | TGI (HL-60(TB) leukemia) | GI50 (MALME-3M melanoma) | TGI (MALME-3M melanoma) | GI50 (MDA-MB-231 breast) | TGI (MDA-MB-231 breast) | GI50 (NCI-H460 lung) | TGI (NCI-H460 lung) | GI50 (SK-MEL-28 melanoma) | TGI (SK-MEL-28 melanoma) | GI50 (SNB-19 CNS) | TGI (SNB-19 CNS) | GI50 (SNB-75 CNS) | TGI (SNB-75 CNS) | GI50 (PC-3 prostate) | TGI (PC-3 prostate) |
| --- | --- | --- | --- | --- | --- | --- | --- | --- | --- | --- | --- | --- | --- | --- | --- | --- | --- | --- | --- | --- |
| COc1ccc(-c2cs/c(=N\N=C\c3ccc(O)cc3O)n2/N=C/c2ccc(O)cc2O)cc1 | 1.8 µM | 3.84 µM | 2.07 µM | 4.38 µM | 1.76 µM | 6.09 µM | 2.2 µM | 4.79 µM | 2.04 µM | 5.51 µM | 2.01 µM | 4.43 µM | 1.88 µM | 4.15 µM | 2.46 µM | 6.84 µM | 1.58 µM | 3.08 µM | – | – |
| CC1=C(C(=O)CC(=O)C(=O)Nc2cc(C)ccc2C)Sc2ccccc2N1 | – | > 100 µM | – | > 100 µM | – | > 100 µM | – | > 100 µM | – | – | – | – | – | > 100 µM | – | > 100 µM | – | – | – | – |
| C=C1C(=O)OC2C/C(C)=C/CC/C(C)=C/CCC3(COC(C)=O)OC3CC12 (stereo not given) | – | 27.5 µM | – | 21.5 µM | – | 5.85 µM | – | 25.7 µM | – | – | – | 25.2 µM | – | 23.1 µM | – | 31.4 µM | – | 27.6 µM | – | – |
| CCC(=O)c1c(NOC2OCC(OC(C)=O)C(OC(C)=O)C2OC(C)=O)nc(OC)n(C)c1=O (stereo not given) | – | > 100 µM | – | > 100 µM | – | > 100 µM | – | > 100 µM | – | – | – | > 100 µM | – | > 100 µM | – | > 100 µM | – | > 100 µM | – | – |
| Cc1ccccc1NC(=O)c1cc(-c2ccc([N+](=O)[O-])cc2)nc(=S)[nH]1 | – | > 100 µM | – | > 100 µM | – | > 100 µM | – | > 100 µM | – | – | – | > 100 µM | – | > 100 µM | – | > 100 µM | – | – | – | – |
| NS(=O)(=O)c1ccc(-n2nc3c(c2-c2ccc(Cl)cc2)Cc2ccccc2-3)cc1 | 19.8 µM | 34.6 µM | 18.3 µM | 35.7 µM | – | – | 2.96 µM | 14.7 µM | 14.8 µM | 30.1 µM | 32.1 µM | > 100 µM | 18.3 µM | 35 µM | 31.7 µM | > 100 µM | 14.6 µM | 30.5 µM | 14 µM | 27.9 µM |
| CCOC(=O)C1=C(Nc2ccc(Cl)cc2Cl)OCC1=O | – | > 100 µM | – | > 100 µM | – | > 100 µM | – | > 100 µM | – | – | – | > 100 µM | – | > 100 µM | – | > 100 µM | – | > 100 µM | – | – |
| O=C(Nc1cc(C(F)(F)F)ccc1Cl)c1ccc(NC2=C(Cl)C(=O)N(Cc3ccccc3)C2=O)cc1 | 23.8 µM | 64.9 µM | 5.28 µM | 9.11 µM | 3.08 µM | 9.33 µM | – | – | 18.8 µM | 69.2 µM | 34.3 µM | > 100 µM | 23.9 µM | 63.5 µM | 30.4 µM | > 100 µM | 56.1 µM | > 100 µM | 14.8 µM | 37.8 µM |
| O=C(O)c1ccc(NCn2nc(-c3ccccc3O)oc2=S)cc1 | 27.7 µM | 72 µM | 29.2 µM | 93.7 µM | 62.8 µM | > 100 µM | – | – | 16.1 µM | 58.5 µM | 40.5 µM | > 100 µM | > 100 µM | > 100 µM | > 100 µM | > 100 µM | – | – | 59.9 µM | > 100 µM |
| COc1cc(C2SCCCCCCCCCCSC(c3ccc(O)c(OC)c3)SCCCCCCCCCCS2)ccc1O (stereo not given) | – | > 100 µM | – | – | – | – | – | > 100 µM | – | > 100 µM | – | – | – | > 100 µM | – | > 100 µM | – | > 100 µM | – | > 100 µM |
| COC/C=C\COC | – | > 100 µM | – | > 100 µM | – | > 100 µM | – | > 100 µM | – | – | – | > 100 µM | – | > 100 µM | – | > 100 µM | – | > 100 µM | – | – |
| CC(=O)N/N=C1\CC(C)(C)C2CCC1C2 (stereo not given) | – | > 100 µM | – | – | – | > 100 µM | – | > 100 µM | – | – | – | > 100 µM | – | > 100 µM | – | > 100 µM | – | > 100 µM | – | – |
| COc1ccc2cc(/C=C/C(=O)c3ccc(Cl)cc3Cl)ccc2c1 | 35.4 µM | > 100 µM | 20.6 µM | 48.8 µM | 17.5 µM | 41 µM | 27 µM | 73.9 µM | 27.3 µM | > 100 µM | 27.4 µM | > 100 µM | – | – | – | – | – | – | 44.7 µM | > 100 µM |
| CCCNC(=O)C1C(=O)C(=O)N(CCC)C1=O (stereo not given) | – | > 100 µM | – | > 100 µM | – | – | – | > 100 µM | – | – | – | > 100 µM | – | > 100 µM | – | > 100 µM | – | > 100 µM | – | – |
| N/N=C1\C(=O)N(C2CCCCCC2)C(=O)C1C(=O)NC1CCCCCC1 (stereo not given) | – | > 100 µM | – | 43.9 µM | – | 45.1 µM | – | 45.3 µM | – | – | – | > 100 µM | – | > 10 µM | – | > 100 µM | – | – | – | – |
| CC1=C[C@H]2c3c([nH]c4ccccc34)C(c3c[nH]c4ccccc34)[C@H]2CC1 (stereo not given in full) | – | 25 µM | – | 12.4 µM | – | 17.6 µM | – | 35.1 µM | – | – | – | 8.21 µM | – | 26 µM | – | – | – | 19 µM | – | – |
| CCC[CH2][Sn]([Cl])([Cl])[CH2]CCC | 0.449 µM | 1.62 µM | 1.1 µM | 2.32 µM | 0.275 µM | 1.02 µM | 0.371 µM | 1.44 µM | – | – | 1.75 µM | 3.72 µM | 0.363 µM | 1.36 µM | 0.948 µM | 2.17 µM | 0.894 µM | 2.28 µM | – | – |
| COc1ccc(NC(=O)CC2SC(=Nc3ccccc3C)NC2=O)c([N+](=O)[O-])c1 (stereo not given) | – | > 100 µM | – | > 100 µM | – | > 100 µM | – | > 100 µM | – | – | – | > 100 µM | – | > 100 µM | – | > 100 µM | – | > 100 µM | – | – |
| Cc1[nH]nc(C(F)(F)F)c1N=NN(C)C | – | 18.9 µM | – | 31.5 µM | – | 42.9 µM | – | 38.3 µM | – | 25.4 µM | – | 26.6 µM | – | 33 µM | – | 28.8 µM | – | – | – | 25.1 µM |
| Cn1c(-c2c(N)n(Nc3cccc(Cl)c3)c3nc(C#N)c(C#N)nc23)nc2ccccc21 | 5.44 µM | 15 µM | 6.95 µM | 16.9 µM | 8.19 µM | > 50 µM | – | – | 6.47 µM | 17.7 µM | 13.3 µM | > 50 µM | 6.99 µM | 24.4 µM | 10.7 µM | 24.3 µM | 8.33 µM | 35.1 µM | 10.5 µM | 33.9 µM |
